According to US20240293551A1, “USE OF ST-TYPE LIPID COMPOUNDS IN PREPARATION OF NUCLEIC ACID DELIVERY REAGENT AND RELATED PRODUCT” (INSTITUTE OF BASIC MEDICAL SCIENCES CHINESE ACADEMY OF …, priority 2021, published 2024):

Tested on: PGY-sRNA-26
Experiment: In vivo delivery study of lipid-nucleic acid mixture (oral gavage, RT-qPCR of PGY-sRNA-26 in tissues)
Parameters: species or system mouse
Conditions: C57BL/6 mice, gavage, 100 μg lipid: 10 nmol PGY-sRNA-26, 12 hours; for delivery efficacy over each tissue and blood tested (broad-spectrum delivery): all tissues and blood tested; for oral delivery of single-stranded sRNA nucleic acids into mouse intestinal tissue: intestine
Summary of the method: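 C57BL/6 male mice (~6 weeks, 20-24 g), fasted 12 h, were gavaged with 10 nmol 3′-methylated PGY-sRNA-26 mixed with 100 μg lipid (heated 90° C. 15 min), versus saline or free sRNA (n=4 each). After 12 h, blood and tissues were Trizol-extracted; sRNA quantified by stem-loop RT-qPCR relative to U6.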

| SMILES | delivery efficacy over each tissue and blood tested (broad-spectrum delivery) | oral delivery of single-stranded sRNA nucleic acids into mouse blood | oral delivery of single-stranded sRNA nucleic acids into mouse brain tissue | oral delivery of single-stranded sRNA nucleic acids into mouse femur | oral delivery of single-stranded sRNA nucleic acids into mouse heart tissue | oral delivery of single-stranded sRNA nucleic acids into mouse intestinal tissue | oral delivery of single-stranded sRNA nucleic acids into mouse kidney tissue | oral delivery of single-stranded sRNA nucleic acids into mouse liver tissue | oral delivery of single-stranded sRNA nucleic acids into mouse lung tissue | oral delivery of single-stranded sRNA nucleic acids into mouse spleen tissue | oral delivery of single-stranded sRNA nucleic acids into mouse stomach tissue |
| --- | --- | --- | --- | --- | --- | --- | --- | --- | --- | --- | --- |
| C[C@@H]1CC[C@@]2(OC1)O[C@H]1C[C@H]3[C@@H]4CC[C@H]5C[C@@H](O)CC[C@]5(C)[C@H]4CC(=O)[C@]3(C)[C@H]1[C@@H]2C [Lipid 558] | exhibited the best delivery efficacy | can effectively orally deliver | can effectively orally deliver | can effectively orally deliver | can effectively orally deliver | can effectively orally deliver | can effectively orally deliver | can effectively orally deliver | can effectively orally deliver | can effectively orally deliver | can effectively orally deliver |
| C[C@H](CCC(=O)O)[C@H]1CC[C@H]2[C@@H]3CC[C@@H]4C[C@H](O)CC[C@]4(C)[C@H]3C[C@H](O)[C@]12C [Lipid 581] | exhibited the best delivery efficacy | can effectively orally deliver | can effectively orally deliver | can effectively orally deliver | can effectively orally deliver | can effectively orally deliver | can effectively orally deliver | can effectively orally deliver | can effectively orally deliver | can effectively orally deliver | can effectively orally deliver |
| C[C@H](CCC(=O)O)[C@H]1CC[C@H]2[C@@H]3[C@H](O)C[C@@H]4C[C@H](O)CC[C@]4(C)[C@H]3CC[C@]12C [Lipid 580] | – | can effectively orally deliver | can effectively orally deliver | can effectively orally deliver | can effectively orally deliver | can effectively orally deliver | – | can effectively orally deliver | can effectively orally deliver | can effectively orally deliver | can effectively orally deliver |
| C=C1CC[C@H](O)C/C1=C/C=C1\CCC[C@]2(C)[C@@H]([C@H](C)CCCC(C)(C)O)CC[C@@H]12 [Lipid 571] | – | can effectively orally deliver | can effectively orally deliver | can effectively orally deliver | can effectively orally deliver | can effectively orally deliver | can effectively orally deliver | can effectively orally deliver | can effectively orally deliver | can effectively orally deliver | can effectively orally deliver |
| C[C@]12C=CC(=O)C=C1CC[C@@H]1[C@@H]2C(=O)C[C@@]2(C)[C@H]1CC[C@]2(O)C(=O)CO [Lipid 564] | – | can effectively orally deliver | can effectively orally deliver | can effectively orally deliver | can effectively orally deliver | can effectively orally deliver | can effectively orally deliver | can effectively orally deliver | can effectively orally deliver | can effectively orally deliver | can effectively orally deliver |
| C=C1/C(=C\C=C2/CCC[C@]3(C)[C@@H]([C@H](C)OCCC(C)(C)O)CC[C@@H]23)C[C@@H](O)C[C@@H]1O [Lipid 540] | exhibited the best delivery efficacy | can effectively orally deliver | can effectively orally deliver | can effectively orally deliver | can effectively orally deliver | can effectively orally deliver | can effectively orally deliver | can effectively orally deliver | can effectively orally deliver | can effectively orally deliver | can effectively orally deliver |
| C[C@H](CCC(=O)O)[C@H]1CC[C@H]2[C@@H]3CC[C@@H]4C[C@H](O)CC[C@]4(C)[C@H]3CC[C@]12C [Lipid 577] | – | can effectively orally deliver | can effectively orally deliver | can effectively orally deliver | can effectively orally deliver | can effectively orally deliver | can effectively orally deliver | can effectively orally deliver | can effectively orally deliver | – | can effectively orally deliver |
| C[C@]12CCC(=O)C=C1CC[C@@H]1[C@@H]2CC[C@]2(C)C(=O)CC[C@@H]12 [Lipid 587] | – | can effectively orally deliver | can effectively orally deliver | – | can effectively orally deliver | – | can effectively orally deliver | – | – | can effectively orally deliver | can effectively orally deliver |
| C[C@]12CC[C@H]3[C@@H](CCC4=CC(=O)CC[C@@]43CO)[C@@H]1CCC2=O [Lipid 567, 19-hydroxy-androstane-4-ene-3,17-dione (8R,9S,10S,13S,14S)-10-(hydroxymethyl)-13-methyl-2,6,7,8,9,11,12,14,15,16-decahydro-1H-cyclopenta[a]phenanthrene-3,17-dione] | exhibited the best delivery efficacy | can effectively orally deliver | can effectively orally deliver | can effectively orally deliver | can effectively orally deliver | can effectively orally deliver | can effectively orally deliver | can effectively orally deliver | can effectively orally deliver | can effectively orally deliver | can effectively orally deliver |
